Measured values as given in patent US20100254951A1, “Nerve Regeneration Promoting Agent” (MOCHIDA PHARMACEUTICAL CO., LTD., priority 2005, published 2010).

How the values were obtained:
[1] = system: adult rat hippocampal dentate gyrus; test: Effect on neurogenesis in adult rat hippocampal dentate gyrus region (BrdU-NeuN double positive cells); format: in vivo; settings: 300 mg/kg/day gavaged for 7 weeks
Protocol: 18-week-old Wister male rats fed with a fish oil-free diet for three generations were used. To DHA group, 4,7,10,13,16,19-docosahexaenoate suspended in a 5% gum arabic solution was gavaged at 300 mg/kg/day every day for 7 weeks. To control group, in the same way as above, only a 5% gum arabic solution was gavaged in the same dose. From 2 weeks after initiation of oral administration, BrdU dissolved in PBS (−) was injected to rats intraperitoneally once a day for 5 days (50 mg/kg).
4 weeks after completion of BrdU administration, PBS (−) was perfused from the hearts of the rats, followed by fixation with 4% paraformaldehyde. The brains were isolated and fixed with paraformaldehyde for further 24 hours, followed by exchange for 25% sucrose. Coronal sections (40 μm) were cut by a microtome, and nuclei labeled with BrdU were detected by the following procedures. […]
Six sections were selected at intervals of 240 μm from the rostro caudal region of a granular cell layer in the whole dentate gyrus, and BrdU-NeuN double positive cells in the granular cell layer and subgranular zone (inside zone along the granular cell layer) were counted. […] The referential volume of the granular cell layer was calculated from the areas of the sampled sections.

[2] = system: neural stem cells; test: Effect on proliferative activity of neural stem cells (BrdU incorporation); format: cell-based, rat; settings: 10 μM BrdU, cultivation for 24 hours under differentiation induction; n=6; P=0.02 vs control
Protocol: In the same way as Experimental Example 1, neural stem cells were divided into DHA group and control (DHA free) group, and 10 μM 5-bromo-2′-droxyuridine (BrdU; Sigma) was added under culture conditions for differentiation induction, followed by cultivation for 24 hours. Thereafter, the cells were treated with 2N HCl at 37° C. for 10 minutes and treated with 0.1 M borate buffer (Na2B4O7, pH 8.5) for 5 minutes. The cell were treated with anti-mouse BrdU antibody (1:1000 Chemicon) and then treated with FITC-labeled secondary antibody.
7 random fields per well were sampled, and the numbers of BrdU-positive cells were counted to calculate a ratio of the number of BrdU-positive cells to the number of total cells. The number of total cells was counted by PI staining. Statistical analysis was evaluated by student's t-test.

[3] = system: neural stem cells and cells differentiated from neural stem cells; test: Effect on apoptosis of neural stem cells and cells differentiated from neural stem cells (pycnotic cells by PI staining, TUNEL); format: cell-based, rat; settings: cultivated under differentiation induction for 7 days; n=6; P=0.01 vs control
Protocol: In the same way as Experimental Example 1, neural stem cells were divided into DHA group and control (DHA free) group and cultivated under culture conditions for differentiation induction for 7 days, and pycnotic cells were evaluated by PI staining.
Apoptosis in the pycnotic cells were confirmed by TUNEL staining. The TUNEL staining was performed using Red In Situ Apoptosis Detection kit (Chemicon). Cells of the DHA group and the control group were cultivated for 7 days under the above-mentioned differentiation conditions and fixed with 4% paraformaldehyde, followed by incubation together with digoxigenin-dUTP in the presence of TdT at 37° C. for 1 hour. TUNEL-labeled cells were detected with Rhodamine conjugated anti-digoxigenin antibody and observed using confocal scanning laser microscopy.

## CC/C=C\C/C=C\C/C=C\C/C=C\C/C=C\C/C=C\CCC(=O)O [DHA, docosahexaenoic acid]
[1]; 18-week-old Wister male rats
  number of BrdU-NeuN double positive cells in the whole granular cell layer of the dentate gyrus compared to the control group: 1.6 fold
[1]; n=3, P=0.005 vs control
  average number of the BrdU-NeuN double positive cells in the respective sections: 878±72.3 cells
[2]
  ratio of BrdU-positive cells to the number of total cells: 16.3±1.0%
[3]
  ratio of the pycnotic cells to the number of total cells: 54.3±3.7%
